In patent publication US20180256654A1, “USE OF LACTOBACILLUS PARACASEI STRAIN GMNL-653 TO PREPARE COMPOSITION FOR RESISTING BONE LOSS” (GENMONT BIOTECH INC., priority 2017, published 2018):

System: ovariectomized ICR female mice
Experiment: Bone tissue analysis by micro computed tomography: trabecular bone volume ratio in the osteoporosis mouse model
Assay type: in vivo
Conditions: oral gavage for 28 days
Procedure: Preparation of dead bacteria: 1 μl Lactobacillus paracasei strain GMNL-653 and the Lactobacillus salivarius strain GMNL-678 frozen viral was inoculated to 1 ml of MRS broth, respectively, and aerobically incubated at 37° C. for 20 hours (first activation). The next day, adding 15 μl culture solution (first activation) into 1.5 ml of MRS broth, and then and aerobically incubated at 37° C. for 20 hours (secondary activation) Estimating the bacteria number by using OD 600 nm to adjust the bacteria concentration to 4.1×10^8 CFU/ml, and heat-killed bacteria was carried by autoclaving at 121° C. for 15 minutes. […]
Micro computed tomography (SkyScan 1076, Kontizh, Belgium, with resolution of 18 μm) was taken of the backbone of the right femur far from the end was taken, and the trabecular bone volume ratio (i.e. bone volume/tissue volume; BV/TV) was analyzed by a software. The analyzed position was selected to include the area of 100 pieces under the growth plate excluding cortical bone. […] The obtained data in the experiments were analyzed with two-way analysis of variance, and the T-test statistical analysis. […] After comparisons, the abovementioned groups were analyzed statistically and noted by different marks to represent the statistically significant differences (* represents p<0.05; ** represents p<0.01 See Table 3 and Table 4, showing the results of the experiment 1.

NCCCC(O)(P(=O)(O)O)P(=O)(O)O [Alendronate]
BV/TV compared with the disease group (OVX+H2O), in words: higher than the disease group
